# Reference: ChEMBL document CHEMBL1201862, “PubChem BioAssay data set” (2004)
# Activity calls are given as the source filed them.
# Legend:
# [1] = cytotoxicity toward NIH3T3 fibroblasts, dose response, counter-screen, cell-based, ATP luminescence, mouse fibroblasts (AID 2010); type: functional;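 also: cells exposed to compound for about 90 hours before reading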
# [2] = growth suppression of PTEN-null colon cells, dose response, cell-based, HCT116 PTEN knockout (AID 1047); type: functional;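 also: HCT116 colon tumor cells with PTEN knocked out; cells exposed to compound for 60 hours before readout; potency for loss of cell viability measured by luminescence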
# [3] = inhibitors of intracellular T. cruzi replication, confirmation, NIH3T3 host cells, beta-gal luminescence (AID 2044); type: functional, cell-based;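 also: intracellular parasites grown in NIH/3T3 mouse fibroblasts as host cells; luminescent beta-galactosidase reporter signal from transgenic T. cruzi replicating inside host cells; inhibitors lower the luminescence signal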
# Cytochrome P450 2C9 = Cytochrome P450 2C9 (Homo sapiens, UniProt P11712)
# Cytochrome P450 2C9, sequence (P11712 whole entry): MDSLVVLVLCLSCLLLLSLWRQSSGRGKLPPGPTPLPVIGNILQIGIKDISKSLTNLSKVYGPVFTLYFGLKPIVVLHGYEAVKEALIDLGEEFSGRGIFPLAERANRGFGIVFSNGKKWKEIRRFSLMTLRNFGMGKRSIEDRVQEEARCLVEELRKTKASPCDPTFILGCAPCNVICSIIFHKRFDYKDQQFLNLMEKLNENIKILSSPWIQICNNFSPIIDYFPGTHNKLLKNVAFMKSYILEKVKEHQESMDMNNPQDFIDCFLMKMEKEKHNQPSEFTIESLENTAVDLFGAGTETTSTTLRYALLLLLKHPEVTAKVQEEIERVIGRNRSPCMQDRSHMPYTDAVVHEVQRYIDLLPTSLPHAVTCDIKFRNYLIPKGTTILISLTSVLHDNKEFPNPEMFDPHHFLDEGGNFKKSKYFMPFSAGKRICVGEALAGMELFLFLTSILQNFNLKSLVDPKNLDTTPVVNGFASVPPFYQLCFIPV
# [4] = growth suppression of beta-catenin-knockout colon cells, dose response, cell-based, HCT116, human colon tumor (AID 1045); type: functional;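 also: HCT116 colon tumor cells with beta catenin knocked out; cells exposed to compound for 60 hours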
# Vero = assay: cells; type: functional; settings: Chlorocebus sabaeus
# [5] = Luminescence Cell-Based Dose Response HTS to Identify Inhibitors of 5'UTR Stem-Loop Driven Prion Protein mRNA Translation in H4 Neuroglioblastoma Cells. [Related pubchem assays: 1827 (Project Summary), 1813 (Primary HTS)]; type: functional
# [6] = inhibitors of firefly luciferase expression or activity, dose response, H4 neuroglioma cells, luminescence (AID 1990); type: functional, cell-based
# [7] = inhibitors of SNCA 5'UTR-driven reporter translation, confirmation, H4 neuroglioma cells, luminescence (AID 1988); type: functional, cell-based
# [8] = LGR2 antagonists, dose response, cell-based, HEK293, CRE-luciferase reporter, cherry pick, set 2 (AID 743343); type: functional;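 also: transfected cells were stimulated with diluted bursicon conditioned medium after compound addition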
# [9] = MC4R antagonists, dose response, counter-screen for LGR2 antagonist project, cell-based, plate reader, cherry pick (AID 743444); type: functional;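 also: transfected HEK 293 cells stimulated with alpha-MSH peptide; potency of inhibitors of the alpha-MSH evoked signal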
# [10] = target: T1, Ubiquitin-conjugating enzyme E2 N (Homo sapiens, UniProt P61088); type: functional;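 also: Dose-response confirmation in a TR-FRET assay detecting UBC13-driven polyubiquitin chain formation, inhibition measured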
# T1 sequence (P61088 whole entry): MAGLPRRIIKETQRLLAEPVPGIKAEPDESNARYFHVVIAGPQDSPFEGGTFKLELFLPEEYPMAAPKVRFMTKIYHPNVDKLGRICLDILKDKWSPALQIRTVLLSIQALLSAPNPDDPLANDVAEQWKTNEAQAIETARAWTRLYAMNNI
# Protein skinhead-1 = target: T2, Protein skinhead-1 (Caenorhabditis elegans, UniProt P34707); type: functional
# T2 sequence (P34707 whole entry): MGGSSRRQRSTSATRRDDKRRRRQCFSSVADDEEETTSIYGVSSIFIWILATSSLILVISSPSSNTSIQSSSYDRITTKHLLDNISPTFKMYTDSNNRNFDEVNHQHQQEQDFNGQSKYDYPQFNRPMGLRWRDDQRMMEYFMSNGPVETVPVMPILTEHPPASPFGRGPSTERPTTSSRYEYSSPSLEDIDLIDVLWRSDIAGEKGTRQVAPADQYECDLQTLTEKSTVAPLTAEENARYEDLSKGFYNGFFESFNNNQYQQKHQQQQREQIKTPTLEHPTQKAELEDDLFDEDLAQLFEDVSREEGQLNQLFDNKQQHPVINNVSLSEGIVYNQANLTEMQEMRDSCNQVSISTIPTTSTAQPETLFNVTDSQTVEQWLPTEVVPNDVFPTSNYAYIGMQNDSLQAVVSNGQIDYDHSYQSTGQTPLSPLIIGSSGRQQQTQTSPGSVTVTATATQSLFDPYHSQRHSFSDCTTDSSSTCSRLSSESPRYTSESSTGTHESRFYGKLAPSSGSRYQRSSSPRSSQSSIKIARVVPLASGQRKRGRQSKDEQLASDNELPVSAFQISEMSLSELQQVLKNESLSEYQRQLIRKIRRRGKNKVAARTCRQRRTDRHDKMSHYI
# [11] = C. albicans growth with fluconazole, confirmation, fluorescence, retest (AID 2467); type: functional, cell-based
# [12] = NIH-3T3 fibroblast cytotoxicity, dose response, cytotoxicity control, cell-based, fluorescence, Alamar Blue, secondary assay (AID 2327); type: functional;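 also: NIH-3T3 mouse fibroblasts cultured with fluconazole at 8 µg/mL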
smiles,measurement,setting,value
C(=C1/CCCC2=C1Nc1ncnn1C2c1ccccc1)/c1ccccc1 (configuration not stated),EC50,[1],6.87 µM (active)
same,EC50,[2],3.45 µM (active)
same,EC50,[3],3.45 µM (active)
same,AC50,Cytochrome P450 2C9,7.94 µM (inconclusive)
same,EC50,[4],2.58 µM (active)
O=C(CCN1C(=O)/C(=C\c2ccccc2)SC1=S)N1CCOCC1,CC50,Vero,24.5 µM (active)
CCOC(=O)Cc1csc(N/C=C2/C(=O)N(c3ccc(C)c(C)c3)C(=O)c3ccccc32)n1,EC50,[2],15.1 µM (active)
same,EC50,[5],10.1 µM (active)
same,EC50,[4],10 µM (active)
same,EC50,[6],> 120 µM (not active)
same,EC50,[7],> 120 µM (not active)
Cc1ccccc1Nc1nnc(SCC(=O)NC(=O)Nc2ccc3c(c2)OCCO3)s1,EC50,[2],14.6 µM (active)
same,EC50,[4],14.5 µM (active)
CC1CCN(S(=O)(=O)c2ccc3c(c2)oc(=O)n3CC(=O)N2c3ccccc3CC2C)CC1 (configuration not stated),EC50,[2],39.5 µM (active)
same,EC50,[4],30.9 µM (active)
C=CCNC(=O)c1c(Cl)nc(C)c([N+](=O)[O-])c1C,AC50,[8],42.7 µM (active)
same,AC50,[9],55.3 µM (active)
COc1ccc(C=NN=C2c3ccccc3-c3ccccc32)cc1O,CC50,Vero,> 25 µM (active)
Cc1nc(N)c2c(Cc3cccc4ccccc34)nn(C(C)(C)C)c2n1,IC50,[10],> 20 µM (inactive)
CC1(Cc2cccc(C(F)(F)F)c2)C(=O)Nc2ccc(-c3ccc(F)c(Cl)c3)cc21 (configuration not stated),IC50,Protein skinhead-1,> 100 µM (inactive)
C[C@H]1CN([C@@H](C)CO)S(=O)(=O)c2ccc(Br)cc2O[C@@H]1CN(C)Cc1cccc(F)c1,CC50,Vero,> 25 µM (active)
Cn1nccc1-c1ccc(C(=O)Nc2cccc(NS(C)(=O)=O)c2)c2occc12,IC50,Protein skinhead-1,> 100 µM (inactive)
C/C(=N\OCc1ccc(C#N)cc1)c1cc2ccccc2o1,EC50,[11],> 38 µM (not active)
same,EC50,[12],> 160 µM (inconclusive)
same,IC50,Protein skinhead-1,64 µM (inactive)
Cc1ccccc1OCc1nc2ccccc2c(=O)n1/N=C/c1c[nH]nc1-c1ccc(Br)cc1,EC50,[2],7.05 µM (active)
same,EC50,[4],7.51 µM (active)
